# Measurements as given in PubChem BioAssay (NCI).
#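 The compound was tested at five concentrations on cells cultured in 96-well plates, with a 48-hour exposure period. At the TGI there is no net growth.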
# Columns and labels:
# Test in all cases: NCI tumour cell line growth inhibition, 48 h
# MDA-MB-231 breast = system: MDA-MB-231 breast
# SK-MEL-2 melanoma = system: SK-MEL-2 melanoma
# IGROV1 ovarian = system: IGROV1 ovarian
# NCI-H460 lung = system: NCI-H460 lung
# MCF7 breast = system: MCF7 breast
# ACHN renal = system: ACHN renal
# LOX IMVI melanoma = system: LOX IMVI melanoma
# UACC-62 melanoma = system: UACC-62 melanoma
# SF-268 CNS = system: SF-268 CNS
# HL-60(TB) leukemia = system: HL-60(TB) leukemia
# MDA-N = system: MDA-N
# SN12C renal = system: SN12C renal
# MDA-MB-435 = system: MDA-MB-435
# 786-0 renal = system: 786-0 renal
# DU-145 prostate = system: DU-145 prostate
# UACC-257 melanoma = system: UACC-257 melanoma
# M14 melanoma = system: M14 melanoma
# KM12 colon = system: KM12 colon
# BT-549 breast = system: BT-549 breast
# HCT-116 colon = system: HCT-116 colon
# NCI/ADR-RES ovarian = system: NCI/ADR-RES ovarian
# CAKI-1 renal = system: CAKI-1 renal
# SF-295 CNS = system: SF-295 CNS
# COLO 205 colon = system: COLO 205 colon
# MOLT-4 leukemia = system: MOLT-4 leukemia
# HOP-92 NSCLC = system: HOP-92 NSCLC
# NCI-H23 lung = system: NCI-H23 lung
# A549 NSCLC = system: A549 NSCLC
# TK-10 renal = system: TK-10 renal
# HT29 colon = system: HT29 colon
# SK-MEL-28 melanoma = system: SK-MEL-28 melanoma
# OVCAR-4 ovarian = system: OVCAR-4 ovarian
# SK-OV-3 ovarian = system: SK-OV-3 ovarian
# SW-620 colon = system: SW-620 colon
# RXF 393 renal = system: RXF 393 renal
# SK-MEL-5 melanoma = system: SK-MEL-5 melanoma
# SNB-75 CNS = system: SNB-75 CNS
# U251 CNS = system: U251 CNS
# OVCAR-5 ovarian = system: OVCAR-5 ovarian
# SNB-19 CNS = system: SNB-19 CNS
# OVCAR-8 ovarian = system: OVCAR-8 ovarian
# NCI-H226 lung = system: NCI-H226 lung
# T-47D breast = system: T-47D breast
# SF-539 CNS = system: SF-539 CNS
# HOP-62 NSCLC = system: HOP-62 NSCLC
# EKVX NSCLC = system: EKVX NSCLC
# A498 renal = system: A498 renal
# OVCAR-3 ovarian = system: OVCAR-3 ovarian
# HCT-15 colon = system: HCT-15 colon
# UO-31 renal = system: UO-31 renal
# HCC-2998 colon = system: HCC-2998 colon
# K-562 leukemia = system: K-562 leukemia
# HS 578T breast = system: HS 578T breast
# PC-3 prostate = system: PC-3 prostate
# SR leukemia = system: SR leukemia
# RPMI-8226 leukemia = system: RPMI-8226 leukemia
# NCI-H522 lung = system: NCI-H522 lung
# MALME-3M melanoma = system: MALME-3M melanoma
# CCRF-CEM leukemia = system: CCRF-CEM leukemia
compound,measurement,setting,value
CCOP(=O)(OCC)/C(=C\n1c(=S)[nH]c2cc(C)ccc21)C(=O)OC,TGI,MDA-MB-231 breast,> 100 µM
same,TGI,SK-MEL-2 melanoma,> 100 µM
same,TGI,IGROV1 ovarian,> 100 µM
same,TGI,NCI-H460 lung,> 100 µM
same,TGI,MCF7 breast,> 100 µM
same,TGI,ACHN renal,> 100 µM
same,TGI,LOX IMVI melanoma,> 100 µM
same,TGI,UACC-62 melanoma,> 100 µM
same,TGI,SF-268 CNS,> 100 µM
same,TGI,HL-60(TB) leukemia,> 100 µM
same,TGI,MDA-N,> 100 µM
same,TGI,SN12C renal,> 100 µM
same,TGI,MDA-MB-435,> 100 µM
same,TGI,786-0 renal,> 100 µM
same,TGI,DU-145 prostate,> 100 µM
same,TGI,UACC-257 melanoma,> 100 µM
same,TGI,M14 melanoma,> 100 µM
same,TGI,KM12 colon,> 100 µM
same,TGI,BT-549 breast,> 100 µM
same,TGI,HCT-116 colon,> 100 µM
same,TGI,NCI/ADR-RES ovarian,> 100 µM
same,TGI,CAKI-1 renal,> 100 µM
same,TGI,SF-295 CNS,> 100 µM
same,TGI,COLO 205 colon,> 100 µM
same,TGI,MOLT-4 leukemia,> 100 µM
same,TGI,HOP-92 NSCLC,> 100 µM
same,TGI,NCI-H23 lung,> 100 µM
same,TGI,A549 NSCLC,> 100 µM
same,TGI,TK-10 renal,> 100 µM
same,TGI,HT29 colon,> 100 µM
same,TGI,SK-MEL-28 melanoma,> 100 µM
same,TGI,OVCAR-4 ovarian,> 100 µM
same,TGI,SK-OV-3 ovarian,> 100 µM
same,TGI,SW-620 colon,> 100 µM
same,TGI,RXF 393 renal,> 100 µM
same,TGI,SK-MEL-5 melanoma,> 100 µM
same,TGI,SNB-75 CNS,> 100 µM
same,TGI,U251 CNS,> 100 µM
same,TGI,OVCAR-5 ovarian,> 100 µM
same,TGI,SNB-19 CNS,> 100 µM
same,TGI,OVCAR-8 ovarian,> 100 µM
same,TGI,NCI-H226 lung,> 100 µM
same,TGI,T-47D breast,> 100 µM
same,TGI,SF-539 CNS,> 100 µM
same,TGI,HOP-62 NSCLC,> 100 µM
same,TGI,EKVX NSCLC,> 100 µM
same,TGI,A498 renal,> 100 µM
same,TGI,OVCAR-3 ovarian,> 100 µM
same,TGI,HCT-15 colon,> 100 µM
same,TGI,UO-31 renal,> 100 µM
same,TGI,HCC-2998 colon,> 100 µM
Cc1[nH]n(-c2ncc(C#N)c(=O)[nH]2)c(=O)c1CCO,TGI,MDA-MB-231 breast,> 100 µM
same,TGI,K-562 leukemia,> 100 µM
same,TGI,SK-MEL-2 melanoma,> 100 µM
same,TGI,IGROV1 ovarian,> 100 µM
same,TGI,HS 578T breast,> 100 µM
same,TGI,NCI-H460 lung,> 100 µM
same,TGI,MCF7 breast,> 100 µM
same,TGI,PC-3 prostate,> 100 µM
same,TGI,ACHN renal,> 100 µM
same,TGI,LOX IMVI melanoma,> 100 µM
same,TGI,UACC-62 melanoma,> 100 µM
same,TGI,SR leukemia,> 100 µM
same,TGI,RPMI-8226 leukemia,> 100 µM
same,TGI,SF-268 CNS,> 100 µM
same,TGI,MDA-N,> 100 µM
same,TGI,SN12C renal,> 100 µM
same,TGI,MDA-MB-435,> 100 µM
same,TGI,786-0 renal,> 100 µM
same,TGI,DU-145 prostate,> 100 µM
same,TGI,UACC-257 melanoma,> 100 µM
same,TGI,M14 melanoma,> 100 µM
same,TGI,KM12 colon,> 100 µM
same,TGI,HCT-116 colon,> 100 µM
same,TGI,NCI/ADR-RES ovarian,> 100 µM
same,TGI,NCI-H522 lung,> 100 µM
same,TGI,CAKI-1 renal,> 100 µM
same,TGI,SF-295 CNS,> 100 µM
same,TGI,COLO 205 colon,> 100 µM
same,TGI,MOLT-4 leukemia,> 100 µM
same,TGI,HOP-92 NSCLC,> 100 µM
same,TGI,NCI-H23 lung,> 100 µM
same,TGI,A549 NSCLC,> 100 µM
same,TGI,TK-10 renal,> 100 µM
same,TGI,HT29 colon,> 100 µM
same,TGI,SK-MEL-28 melanoma,> 100 µM
same,TGI,OVCAR-4 ovarian,> 100 µM
same,TGI,SK-OV-3 ovarian,> 100 µM
same,TGI,SW-620 colon,> 100 µM
same,TGI,RXF 393 renal,> 100 µM
same,TGI,MALME-3M melanoma,> 100 µM
same,TGI,CCRF-CEM leukemia,> 100 µM
same,TGI,SK-MEL-5 melanoma,> 100 µM
same,TGI,SNB-75 CNS,99 µM
same,TGI,U251 CNS,> 100 µM
same,TGI,OVCAR-5 ovarian,> 100 µM
same,TGI,SNB-19 CNS,> 100 µM
same,TGI,OVCAR-8 ovarian,> 100 µM
same,TGI,NCI-H226 lung,> 100 µM
same,TGI,T-47D breast,> 100 µM
same,TGI,SF-539 CNS,> 100 µM
same,TGI,HOP-62 NSCLC,> 100 µM
same,TGI,EKVX NSCLC,> 100 µM
same,TGI,A498 renal,> 100 µM
same,TGI,OVCAR-3 ovarian,> 100 µM
same,TGI,HCT-15 colon,> 100 µM
same,TGI,UO-31 renal,> 100 µM
same,TGI,HCC-2998 colon,> 100 µM
